Source: patent publication US6369049B1, “Treatment of mastitis” (Eli Lilly and Company, priority 1998, dated 2002)
Marks after values point to notes of the source that are not given here.

Key:
[1] = system: Streptococcus uberis 167I; assay: MIC vs. Streptococcus uberis 167I; format: cell-based; set-up: unit not given beside the values; conditions: Table 2a
From the text: (§1) Tables 2 and 2a summarize the minimal inhibitory concentrations (MIC's) at which illustrative formula I compounds and cephalothin inhibit certain microorganisms that are associated with mastitis, such as Staphylococcus aureus 10092 (Newbould strain).

[2] = system: Pasteurella haemolytica 128K (bovine); assay: MIC vs. Pasteurella haemolytica 128K (bovine); format: cell-based; conditions: for MIC against Pasteurella haemolytica Strain 128K: Table 3a, incubated at 37° overnight; for MIC vs. Pasteurella haemolytica 128K (bovine): Table 3, incubated at 37° C. overnight
From the text: (§2) The formula I compounds are also active against certain Gram-negative species. Tables 3 and 3a show the MIC's of Formula I compounds against certain Gram-negative species.

[3] = system: Staphylococcus aureus 168H; assay: MIC vs. Staphylococcus aureus 168H; format: cell-based; set-up: unit not given beside the values; conditions: Table 2a
From the text: as §1

[4] = system: Staphylococcus aureus 10092 (Newbould); assay: Induced Staphylococcus aureus mastitis model in lactating goats; format: in vivo; conditions: S. aureus 10092 challenge, in peanut oil
From the text: Sixteen lactating goats were selected based on the absence of Staphylococcus aureus in pre-challenge milk cultures. Maintenance ration was provided to the animals throughout the study. The goats were milked twice each day using a portable goat milker.
Milk samples were collected during the morning milking. One day prior to challenge, milk culture samples were collected from each half of the test animals to determine if there was a pre-existing infection. Additionally, a sample was collected from each half for Somatic Cell Count (SCC) determination. A milk culture sample and a sample for SCC were collected from each half 24 hours post-challenge and on Days +4 to +6, +8, +11, +13, and +15.
Udder scoring was performed during each milking using the following table:
General health observations and body temperature were recorded once a day following milking during the challenge and treatment periods.
Milk samples were submitted for analysis for SCC using an electronic somatic cell counting system.
Milk culture samples were assayed for bacterial culture by plating 1.0 mL and 0.1 mL of the milk sample directly onto duplicate blood agar plates. Additionally, dilutions […] the milk sample were plated. Plates were incubated overnight at 37° C.
Staphylococcus aureus 10092 (Newbould) was used as the challenge strain. The challenge culture was grown in Tryptic Soy Broth (TSB) from a lyovial stock overnight (16 hours) at 37° C. TSB (100 mL) was inoculated with 1 mL of the overnight culture and incubated at 37° C. with shaking for 4 hours. The culture was centrifuged at 9000 rpm for 10 minutes at 10° C.; supernatant was removed and the pellet was resuspended in phosphate buffered saline (PBS). Optimum O.D. reading at 650 nm was approximately 0.035. A 10-fold dilution series was prepared with saline to determine the CFU/mL, plating 10^−5, 10^−6, and 10^−7 dilutions onto duplicate blood agar plates. The 10^−7 dilution (approximately 10 CFU/mL) was used for the challenge material, yielding a challenge of 50 CFU/half with a 5-mL infusion.
Sixteen goats were used for the trial. During a one day pre-challenge period, milk samples were collected and temperatures were taken during the morning milking. Milk/udder evaluations were documented during the morning and afternoon milkings.
Staphylococcus aureus 10092 was infused into both halves in each of the goats. The goats were challenged following the morning milking and milked in the afternoon on the day of challenge. The challenge inoculum volume was 5 mL/half containing approximately 50 CFU S. aureus.
For the 24 hr post-challenge period milk samples were collected during the morning milking, and milk/udder evaluations made during the morning and afternoon milking.
Treatment was started at 36 hours post-challenge. Milk samples were collected for culture and SCC 24 hours post-challenge, prior to the morning milking, and the treatment period started following the afternoon milking.
Eight halves (4 goats) each were treated for 2 consecutive milkings 12 hours apart, following milking. […]
Following treatment, the goats were milked and observed for 15 days. Milk samples were collected on Days +4 to +6, +8, +11, +13, and +15 to determine if the infection had cleared.
Establishment of mastitis was determined by bacterial culturing, severity of udder scoring, somatic cell count results, and body temperature.
On Days +2 to +6, milk samples were collected for a colorimetric assay to determine whether the antibiotic was still present in the milk.

Streptococcus faecalis = assay: MIC vs. Streptococcus faecalis; format: cell-based; set-up: unit not given beside the values; conditions: Table 2a
From the text: as §1

[5] = system: Staphylococcus aureus 170C; assay: MIC vs. Staphylococcus aureus 170C; format: cell-based; set-up: unit not given beside the values; conditions: Table 2a
From the text: as §1

[6] = system: Streptococcus dysgalactiae 152B; assay: MIC vs. Streptococcus dysgalactiae 152B; format: cell-based; set-up: unit not given beside the values; conditions: Table 2a
From the text: as §1

[7] = system: Streptococcus agalactiae 150G; assay: MIC vs. Streptococcus agalactiae 150G; format: cell-based; set-up: unit not given beside the values; conditions: Table 2a
From the text: as §1

[8] = system: Staphylococcus aureus 10092 (Newbould strain); assay: MIC vs. S. aureus 10092 (Newbould strain); format: cell-based; set-up: unit not given beside the values; conditions: for MIC vs. Staphylococcus aureus 10,092: Table 2a; for MIC vs. S. aureus 10092: Table 2, incubated at 37° C. overnight
From the text: as §1

[9] = system: Staphylococcus epidermidis 174B; assay: MIC vs. Staphylococcus epidermidis 174B; format: cell-based; set-up: unit not given beside the values; conditions: Table 2a
From the text: as §1

S. aureus 174 C = assay: MIC vs. S. aureus 174 C; format: cell-based, Staphylococcus aureus; set-up: unit not given beside the values; conditions: Incubated at 37° C. overnight
From the text: as §1

[10] = system: Streptococcus dysgalactiae; assay: MIC vs. Streptococcus dysgalactiae; format: cell-based; set-up: unit not given beside the values; conditions: Incubated at 37° C. overnight
From the text: as §1

[11] = system: Pasteurella haemolytica 129R (bovine); assay: MIC vs. Pasteurella haemolytica 129R (bovine); format: cell-based; conditions: Incubated at 37° C. overnight
From the text: as §2

[12] = system: Streptococcus uberis 150 L; assay: MIC vs. Streptococcus uberis 150 L; format: cell-based; set-up: unit not given beside the values; conditions: Incubated at 37° C. overnight
From the text: as §1

[13] = system: Streptococcus agalactiae 150 B; assay: MIC vs. Streptococcus agalactiae 150 B; format: cell-based; set-up: unit not given beside the values; conditions: Incubated at 37° C. overnight
From the text: as §1

[14] = system: Pasteurella haemolytica 114F (bovine); assay: MIC vs. Pasteurella haemolytica 114F (bovine); format: cell-based; conditions: Incubated at 37° C. overnight
From the text: as §2

[15] = system: Pasteurella multocida 1051 (swine); assay: MIC vs. Pasteurella multocida 1051 (swine); format: cell-based; conditions: Incubated at 37° C. overnight
From the text: as §2

[16] = system: Streptococcus uberis 166 L; assay: MIC vs. Streptococcus uberis 166 L; format: cell-based; set-up: unit not given beside the values; conditions: Incubated at 37° C. overnight
From the text: as §1

[17] = system: Pasteurella multocida 108E (bovine); assay: MIC vs. Pasteurella multocida 108E (bovine); format: cell-based; conditions: Incubated at 37° C. overnight
From the text: as §2

[18] = system: Pasteurella multocida 10,102 (bovine); assay: MIC vs. Pasteurella multocida 10,102 (bovine); format: cell-based; conditions: Incubated at 37° C. overnight
From the text: as §2

S. aureus F1C = assay: MIC vs. S. aureus F1C; format: cell-based, Staphylococcus aureus; set-up: unit not given beside the values; conditions: Incubated at 37° C. overnight
From the text: as §1

Salmonella typhimurium = assay: MIC vs. Salmonella typhimurium; format: cell-based; conditions: Incubated at 37° C. overnight
From the text: as §2

S. aureus ATCC 29213 = assay: MIC vs. S. aureus ATCC 29213; format: cell-based, Staphylococcus aureus; set-up: unit not given beside the values; conditions: Incubated at 37° C. overnight
From the text: as §1

[19] = system: Pasteurella multocida ATCC 12945; assay: MIC vs. Pasteurella multocida ATCC 12945; format: cell-based; conditions: Incubated at 37° C. overnight
From the text: as §2

Escherichia coli = assay: MIC vs. Escherichia coli; format: cell-based; set-up: unit not given beside the values; conditions: Incubated at 37° C. overnight
From the text: as §2

[20] = approximately 25 mg/5 mL dose per half, 2 consecutive milkings 12 hours apart

SMILES	MIC vs. Streptococcus uberis 167I [1]	MIC against Pasteurella haemolytica Strain 128K [2]	MIC vs. Staphylococcus aureus 168H [3]	% Bacteriologic Cures [4, 20] [%]	MIC vs. Streptococcus faecalis (Streptococcus faecalis)	MIC vs. Staphylococcus aureus 170C [5]	MIC vs. Streptococcus dysgalactiae 152B [6]	MIC vs. Streptococcus agalactiae 150G [7]	MIC vs. Staphylococcus aureus 10,092 [8]	MIC vs. Staphylococcus epidermidis 174B [9]	MIC vs. S. aureus 174 C (S. aureus 174 C)	MIC vs. Streptococcus dysgalactiae [10]	MIC vs. Streptococcus uberis 150 L [12]	MIC vs. Streptococcus agalactiae 150 B [13]	MIC vs. Streptococcus uberis 166 L [16]	MIC vs. S. aureus F1C (S. aureus F1C)	MIC vs. S. aureus ATCC 29213 (S. aureus ATCC 29213)	also measured
O=C(COc1ccc(OC(F)(F)F)cc1)NC1C(=O)N2C(C(=O)O)=C(Cl)CSC12 (stereo not drawn) [Compound 8]	128	32	1	50	64	<0.125	0.5	1	1	1								
O=C(COc1c(F)c(F)c(C(F)(F)F)c(F)c1F)NC1C(=O)N2C(C(=O)O)=C(Cl)CSC12 (stereo not drawn) [Compound 10]				57														
O=C(CSc1c(F)c(F)c(F)c(F)c1F)NC1C(=O)N2C(C(=O)O)=C(Cl)CSC12 (stereo not drawn) [Compound 9]	4	4	0.5	63	8	0.5	0.5	0.5	0.5	0.5								
O=C(COc1c(F)c(F)c(F)c(F)c1F)NC1C(=O)N2C(C(=O)O)=C(Cl)CCC12 (stereo not drawn) [Compound 7]	128	32	16	13	>128	1	2	2	4	2								
O=C(COc1c(F)c(F)c(F)c(F)c1F)NC1C(=O)N2C(C(=O)O)=C(Cl)CSC12 (stereo not drawn) [Compound 1]											0.5	0.125	0.25	0.125	0.25	0.5	0.5	MIC vs. Pasteurella haemolytica 129R (bovine) [11]: 4; MIC vs. Pasteurella haemolytica 128K (bovine) [2]: 4; MIC vs. Pasteurella haemolytica 114F (bovine) [14]: 4; % Bacteriologic Cures ([4]; dosing was 100 mg/5 mL dose): 75* %; MIC vs. Pasteurella multocida 1051 (swine) [15]: 0.5; MIC vs. Pasteurella multocida 108E (bovine) [17]: 0.5; MIC vs. Pasteurella multocida 10,102 (bovine) [18]: 0.5; MIC vs. S. aureus 10092 [8]: 0.25; MIC vs. Salmonella typhimurium (Salmonella typhimurium): >128; MIC vs. Pasteurella multocida ATCC 12945 [19]: 0.125; MIC vs. Escherichia coli (Escherichia coli): >128
O=C(COc1c(F)cc(F)cc1F)NC1C(=O)N2C(C(=O)O)=C(Cl)CSC12 (stereo not drawn) [Compound 5]	16	16	2	100	16	4	0.5	1	1	1								
O=C(Cc1c(F)c(F)c(F)c(F)c1F)NC1C(=O)N2C(C(=O)O)=C(Cl)CSC12 (stereo not drawn) [Compound 4]											1	0.0312	0.5	0.5	0.0156	1	1	MIC vs. S. aureus 10092 [8]: 0.5
CC(=O)OCC1=C(C(=O)O)N2C(=O)[C@@H](NC(=O)Cc3cccs3)[C@H]2SC1 [Cephalothin, reference compound]	32	1	0.5		16	0.5	0.5	0.5	0.5	0.5	0.25	0.0625-0.125	0.125	0.125	0.0625	0.25	0.25	MIC vs. Pasteurella haemolytica 129R (bovine) [11]: 1; MIC vs. Pasteurella haemolytica 128K (bovine) [2]: 0.5; MIC vs. Pasteurella haemolytica 114F (bovine) [14]: 1; MIC vs. Pasteurella multocida 1051 (swine) [15]: 0.25; MIC vs. Pasteurella multocida 108E (bovine) [17]: 0.5; MIC vs. Pasteurella multocida 10,102 (bovine) [18]: 0.5; MIC vs. Salmonella typhimurium (Salmonella typhimurium): 4; MIC vs. Pasteurella multocida ATCC 12945 [19]: 0.25; MIC vs. Escherichia coli (Escherichia coli): 8
O=C(COc1cc(F)cc(F)c1)NC1C(=O)N2C(C(=O)O)=C(Cl)CSC12 (stereo not drawn) [Compound 6]	32	4	2	75	32	4	0.25	0.5	0.5	0.5								
